Laboratory results published in ChEMBL document CHEMBL1138556, “Synthesis of some new 4-styryltetrazolo[1,5-a]quinoxaline and 1-substituted-4-styryl[1,2,4]triazolo[4,3-a]quinoxaline derivatives as potent anticonvulsants” (2009).

What was measured:
[1] = test system: Mus musculus; assay: Anticonvulsant activity in Swiss albino mouse assessed as protection against pentylenetetrazole-induced seizures at 10 mg/kg administered 1 hr before PTZ challenge relative to control; type: functional
[2] = test system: Mus musculus; assay: Anticonvulsant activity in Swiss albino mouse assessed as duration of pentylenetetrazole-induced seizures at 10 mg/kg administered 1 hr before PTZ challenge; type: functional

Compound | Activity [1] [%] | Activity [2] [s]
Cc1nnc2c(/C=C/c3cccc([N+](=O)[O-])c3)nc3ccccc3n12 | 0 | 11
Cc1nnc2c(/C=C/c3ccc(F)cc3)nc3ccccc3n12 | 100 | 0
COc1ccc2cc(/C=C/c3nc4ccccc4n4nnnc34)ccc2c1 | 0 | 8
Fc1ccc(/C=C/c2nc3ccccc3n3nnnc23)cc1 | 100 | 0
COc1ccc(/C=C/c2nc3ccccc3n3c(C)nnc23)cc1 | 0 | 14
Fc1ccc(/C=C/c2nc3ccccc3n3c(C(F)(F)F)nnc23)cc1 | 100 | 0
O=[N+]([O-])c1cccc(/C=C/c2nc3ccccc3n3cnnc23)c1 | 0 | 12
O=[N+]([O-])c1cccc(/C=C/c2nc3ccccc3n3nnnc23)c1 | 0 | 11
CCOc1ccc(-c2nnc3c(/C=C/c4ccc(Cl)cc4)nc4ccccc4n23)cc1O | 0 | 12
COc1ccc2cc(/C=C/c3nc4ccccc4n4c(C(F)(F)F)nnc34)ccc2c1 | 0 | 12
Fc1ccc(/C=C/c2nc3ccccc3n3cnnc23)cc1 | 100 | 0
Fc1ccc(/C=C/c2nc3ccccc3n3c(-c4ccc(-c5ccccc5)cc4)nnc23)cc1 | 0 | 8
COc1ccc(/C=C/c2nc3ccccc3n3nnnc23)cc1 | 0 | 11
COc1ccc(-c2nnc3c(/C=C/c4ccc(Cl)cc4)nc4ccccc4n23)cc1 | 0 | 12
COc1ccc(/C=C/c2nc3ccccc3n3c(C(F)(F)F)nnc23)cc1 | 100 | 0
COc1ccc(/C=C/c2nc3ccccc3n3cnnc23)cc1 | 0 | 14
COc1ccc(/C=C/c2nc3ccccc3n3c(-c4ccc(F)cc4)nnc23)cc1 | 100 | 0
C(=C\c1nc2ccccc2n2nnnc12)/c1ccccc1 | 100 | 0
